Experimental data: PubChem BioAssay AID743299 (The Scripps Research Institute Molecular Screening Center, 2014)

Molecular target: methionyl-tRNA synthetase (Trypanosoma brucei brucei)
Assay: T. brucei MetRS inhibitors, orthogonal readout, late-stage follow-up, orthogonal assay for T. brucei MetRS inhibitor project, biochemical, fluorescence polarization, dose response, round 2 (AID 743299)
Conditions: recombinant T. brucei MetRS

An IC50 of 181 nM was found for `CCN(CC)C(=O)C(=O)c1cn(CC(=O)Nc2cccc(C(F)(F)F)c2)c2ccccc12` in this work.
